Laboratory results reported in patent US20140271657A1, “COMBINATORIAL COMPOSITIONS AND METHODS OF TREATING HEMOGLOBINOPATHIES” (CHILDREN'S MEDICAL CENTER CORPORATION, priority 2011, published 2014).

Legend:
HDAC = conditions: cited from earlier work; for concentration at which HDAC is inhibited: in vitro or in vivo, literature
human γ-globin genes = assay: Expression of human γ-globin genes monitored by qRT-PCR in β-YAC mice before and after drug treatment; assay type: in vivo, mouse
Source text: The wild-type β-globin locus transgenic (β-YAC) mouse strain was kindly provided by K. Peterson and was created with the insertion of a 213 kb YAC containing the entire human β-globin locus (30). This β-YAC line contains three intact copies of the human β-globin locus integrated at a single genomic locus. The A20 β-YAC line harboring a single copy of a 150 kb β-globin locus YAC was kindly provided by K. Gaensler and M. Groudine (31). These transgenes were maintained in the hemizygous state. C57BL/6 mice containing a Bcl11a floxed allele (with loxP sites flanking exon 1) were created through gene targeting approaches (G.C.I. et al, in preparation). To obtain the Bcl11a conditional knockout mice, the Bcl11a^fl/fl mice were crossed with various Cre strains, including EpoR-GFP Cre knock-in mice (13), Vav-Cre (32) and Mx1-Cre (33) transgenic mice. The humanized mouse model of sickle cell anemia that expresses exclusively human sickle hemoglobin (HbS) was obtained from The Jackson Laboratory and has been described and characterized previously (19). These mice contain the human sickle transgene [Tg(Hu-miniLCRα1^Gγ^Aγδβ^S)Hba^0//Hba^0Hbb^0//Hbb^0] and knockout of both the murine α- and β-globin genes (hereafter called SCD mice). The human sickle transgene were created by three DNA fragments consisting of a 6.5-kb mini-LCR, a 1.5-kb Pst I fragment containing the human α1-globin gene, and a 39-kb Kpn I fragment containing the human ^Gγ, ^Aγ, δ, and β^S globin genes in their normal genomic context (19). No significant difference in globin gene expression and SCD phenotypes were observed between mice that are knockout of one copy or both copies of murine α-globin genes. To generate BCL11A knockout SCD mice, the inventors introduced the EpoR-Cre and Bcl11a^fl/fi alleles into the SCD transgenic knockout mice (hereafter called SCD/Bcl11a^−/− mice). Mice containing both the human sickle transgene and at least one copy of murine β-globin gene were used as controls. PolyI:ployC (pIpC, SIGMA®) was prepared at 2 mg/ml in PBS and administrated via intraperitoneal (i.p.) injection daily at a dose of 25 μg/kg for 7 days. […]
FACS-sorted CD71^+Ter1 19^+ erythroid cells was isolated from bone marrows of 6-week old mice. […] Model-based expression value of probe sets were calculated by dChip from raw AFFYMETRIX® CEL files, and QQ-normalization was then applied to normalize the expression value distribution among multiple arrays (41). […] For quantitative RT-PCR analysis, RNA was extracted using a QIAamp® RNA Blood Mini Kit or an RNeasy® Plus Mini Kit (QIAGEN®). Quantified RNA was reverse-transcribed using an iScript cDNA Synthesis Kit (BIO-RAD®). cDNA samples were analyzed in triplicate with the iQ™ SYBR® Green Supermix using the iCycler Real-Time PCR Detection System (BIO-RAD®). […]

[1] = test system: acetyl-H3 within γ-promoter regions; assay: ChIP of chromatin acetyl-H3 within human globin loci in CD71+Ter119+ BM cells of treated β-YAC mice; assay type: in vivo, mouse; conditions: after SAHA treatment
Source text: (§1) The wild-type β-globin locus transgenic (β-YAC) mouse strain was kindly provided by K. Peterson and was created with the insertion of a 213 kb YAC containing the entire human β-globin locus (30). This β-YAC line contains three intact copies of the human β-globin locus integrated at a single genomic locus. The A20 β-YAC line harboring a single copy of a 150 kb β-globin locus YAC was kindly provided by K. Gaensler and M. Groudine (31). These transgenes were maintained in the hemizygous state. C57BL/6 mice containing a Bcl11a floxed allele (with loxP sites flanking exon 1) were created through gene targeting approaches (G.C.I. et al, in preparation). To obtain the Bcl11a conditional knockout mice, the Bcl11a^fl/fl mice were crossed with various Cre strains, including EpoR-GFP Cre knock-in mice (13), Vav-Cre (32) and Mx1-Cre (33) transgenic mice. The humanized mouse model of sickle cell anemia that expresses exclusively human sickle hemoglobin (HbS) was obtained from The Jackson Laboratory and has been described and characterized previously (19). […]
ChIP was performed as previously described (10). […] Precipitated DNA samples were quantified using primers designed to amplify several control regions within the human β-globin locus as indicated below the graph. […]

acetyl-H3 (H3ac) = assay: Western blot of acetyl-H3 (H3ac) in whole-cell extracts of bone marrow cells of treated mice; assay type: in vivo, mouse; conditions: after SAHA treatment, control and Bcl11a−/− (EpoR-Cre+) mice
Source text: as §1
Expression of BCL11A was assessed using antibody 14B5 and 15E3AC11 (Abcam Inc.), as described previously (9). […] GAPDH (sc-25778, Santa Cruz Biotechnology Inc.) was analyzed as a loading control.

## CCC(=O)CCCCC[C@@H]1NC(=O)[C@H]2CCCCN2C(=O)[C@H]([C@@H](C)CC)NC(=O)[C@H](Cc2cn(OC)c3ccccc23)NC1=O [Apicidin]
HDAC
  concentration at which HDAC is inhibited: nanomolar concentrations

## C=C[C@@H](O)[C@@H]1O[C@H]1/C=C/[C@@H]1O[C@@H]1[C@@H](C)O [depudecin]
HDAC
  concentration at which HDAC is inhibited: micromolar concentrations

## O=C(/C=C/c1cccc(C(=O)NO)c1)NO [CBHA, m-carboxy-cinnamic acid bishydroxamic acid]
HDAC
  concentration at which HDAC is inhibited: micromolar concentration or lower

## trichostatin A [TSA]
HDAC; literature (Yoshida et al. 1990)
  inhibition of mammalian HDAC: potent inhibitor

## O=C(CCCCCCC(=O)Nc1ccccc1)NO [SAHA, suberoylanilide hydroxamic acid]
Human γ-globin genes; Bcl11a−/− (EpoR-Cre+) vs control β-YAC mice, 25 mg/kg daily i.p. for up to three weeks
  interaction of SAHA with BCL11A loss in derepression of γ-globin mRNA: synergized
[1]
  level of histone H3 acetylation within γ-promoter regions: elevated
acetyl-H3 (H3ac)
  level of histone H3 acetylation in bone marrow cells: elevated

## Nc1ncn([C@H]2C[C@H](O)[C@@H](CO)O2)c(=O)n1 [5-azaD, 5-aza-2′-deoxycytidine]
Human γ-globin genes; Bcl11a−/− (EpoR-Cre+) vs control β-YAC mice, 5 mg/kg daily for 5 days i.p., 5 mg/kg
  interaction of 5-azaD treatment with BCL11A loss on γ-globin mRNA: unexpectedly synergistic
Human γ-globin genes; Bcl11a−/− (EpoR-Cre+) β-YAC mice, 5-azaD 5 mg/kg daily for 5 days i.p.
  γ-globin mRNA: 37.9%
Human γ-globin genes; normal (control, Bcl11a+/+) β-YAC mice, 5-azaD 5 mg/kg daily for 5 days i.p.
  change in γ-globin mRNA: very small increment

## C/C=C1\NC(=O)[C@H]2CSSCC/C=C/[C@H](CC(=O)N[C@H](C(C)C)C(=O)N2)OC(=O)[C@H](C(C)C)NC1=O [FR901228]
HDAC
  concentration at which HDAC is inhibited: micromolar concentrations
